Laboratory results from patent US20100311714A1, “1H-IMIDAZO[4,5-c]QUINOLINONE COMPOUNDS” (priority 2009, published 2010).
Read-outs that look alike come from different tables or passages of the source.

Experiments:
[1] = tested on: PKB Ser473 phosphorylation in Rat1-myr-HA-p110 delta cells; experiment: Reverse protein array, PKB Ser473 phosphorylation in Rat1-myr-HA-p110 delta cells; assay type: cell-based; settings: Rattus norvegicus, 0.5 h, 30 minutes compound incubation, read-out: p-PKB/IC50_delta
[2] = tested on: S6 Ribosomal Protein phosphorylation Ser235/236 in TSC1 null mouse embryo fibroblast (MEF) cells; experiment: Reverse protein array, S6 Ribosomal Protein phosphorylation in TSC1 null MEF cells; assay type: cell-based; settings: 1 h, TSC1-/- MEFs, 60 minutes
In short: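 Phospho-S6 (Ser235/236) was quantified by reverse protein array of cell lysates with a phospho-specific primary antibody. […]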

| SMILES | IC50 [1] [µM] | IC50 ([2]; read-out: p-S6) [µM] | IC50 ([2]; read-out: p-S6 IC50) [µM] |
| --- | --- | --- | --- |
| CNc1ccc(-c2ccc3ncc4c(c3c2)n(-c2ccc(F)nc2C)c(=O)n4C)cn1 [Example 7.4, 1-(6-Fluoro-2-methyl-pyridin-3-yl)-3-methyl-8-(6-methylamino-pyridin-3-yl)-1,3-dihydro-imidazo[4,5-c]quinolin-2-one] | 0.0193 | 0.00852 |  |
| Cc1nc(C(F)(F)F)ccc1-n1c(=O)n(C)c2cnc3ccc(-c4cncc(C(C)(C)O)c4)cc3c21 [Example 33.1, 8-[5-(1-Hydroxy-1-methyl-ethyl)-pyridin-3-yl]-3-methyl-1-(2-methyl-6-trifluoromethyl-pyridin-3-yl)-1,3-dihydro-imidazo[4,5-c]quinolin-2-one] | 0.043 |  | 0.002 |
| Cc1ncccc1-n1c(=O)n(C)c2cnc3ccc(-c4cncc(NC(C)C)c4)cc3c21 [Example 2.24, 8-(5-Isopropylamino-pyridin-3-yl)-3-methyl-1-(2-methyl-pyridin-3-yl)-1,3-dihydro-imidazo[4,5-c]quinolin-2-one] | 0.0289 |  | 0.004 |
| CCNc1ncc(-c2ccc3ncc4c(c3c2)n(-c2ccc(N3CC[C@@H](O)C3)nc2C)c(=O)n4C)cc1COCC [Example 34.4, 8-(5-Ethoxymethyl-6-ethylamino-pyridin-3-yl)-1-[6-((R)-3-hydroxy-pyrrolidin-1-yl)-2-methyl-pyridin-3-yl]-3-methyl-1,3-dihydro-imidazo[4,5-c]quinolin-2-one] | 0.253 |  | 0.008 |
| COc1cc(-c2ccc3ncc4c(c3c2)n(-c2cccnc2C)c(=O)n4C)cnc1C(OC)OC [Example 2.27, 8-(6-Dimethoxymethyl-5-methoxy-pyridin-3-yl)-3-methyl-1-(2-methyl-pyridin-3-yl)-1,3-dihydro-imidazo[4,5-c]quinolin-2-one] | 0.825 |  | 0.054 |
| CNc1ncc(-c2ccc3ncc4c(c3c2)n(-c2ccc(N3CC[C@H](O)C3)nc2C)c(=O)n4C)cc1F [Example 32.2, 8-(5-Fluoro-6-methylamino-pyridin-3-yl)-1-[6-((S)-3-hydroxy-pyrrolidin-1-yl)-2-methyl-pyridin-3-yl]-3-methyl-1,3-dihydro-imidazo[4,5-c]quinolin-2-one] | 0.0305 |  | 0.001 |
| COc1nc(N2CCNCC2)ccc1-n1c(=O)n(C)c2cnc3ccc(-c4cnc(N)c(C(F)(F)F)c4)cc3c21 [Example 9.2, 8-(6-Amino-5-trifluoromethyl-pyridin-3-yl)-1-(2-methoxy-6-piperazin-1-yl-pyridin-3-yl)-3-methyl-1,3-dihydro-imidazo[4,5-c]quinolin-2-one] | 0.0239 | 0.00335 |  |
| CNc1ncc(-c2ccc3ncc4c(c3c2)n(-c2ccc(N3CC[C@H](O)C3)nc2C)c(=O)n4C)cc1C(F)(F)F [Example 32.5, 1-[6-((S)-3-Hydroxy-pyrrolidin-1-yl)-2-methyl-pyridin-3-yl]-3-methyl-8-(6-methylamino-5-trifluoromethyl-pyridin-3-yl)-1,3-dihydro-imidazo[4,5-c]quinolin-2-one] | 0.016 |  | 0.001 |
| CCOc1cc(-c2ccc3ncc4c(c3c2)n(-c2ccc(OCCOC)nc2C)c(=O)n4C)cnc1COC [Example 22.1, 8-(5-Ethoxy-6-methoxymethyl-pyridin-3-yl)-1-[6-(2-methoxy-ethoxy)-2-methyl-pyridin-3-yl]-3-methyl-1,3-dihydro-imidazo[4,5-c]quinolin-2-one] | 0.207 |  | 0.007 |
| COc1ncc(-c2ccc3ncc4c(c3c2)n(-c2ccc(N3CC[C@H](O)C3)nc2C)c(=O)n4C)c(OC)n1 [Example 32.3, 8-(2,4-Dimethoxy-pyrimidin-5-yl)-1-[6-((S)-3-hydroxy-pyrrolidin-1-yl)-2-methyl-pyridin-3-yl]-3-methyl-1,3-dihydro-imidazo[4,5-c]quinolin-2-one] | 0.059 |  | 0.004 |
| CCOc1cc(-c2ccc3ncc4c(c3c2)n(-c2ccc(N3CCCC3)nc2C)c(=O)n4C)cnc1COC [Example 25.2, 8-(5-Ethoxy-6-methoxymethyl-pyridin-3-yl)-3-methyl-1-(2-methyl-6-pyrrolidin-1-yl-pyridin-3-yl)-1,3-dihydro-imidazo[4,5-c]quinolin-2-one] | 0.124 |  | 0.002 |
| Cc1nc(N2CC[C@H](O)C2)ccc1-n1c(=O)n(C)c2cnc3ccc(-c4cncc(OC(C)C)c4)cc3c21 [Example 32.8, 1-[6-((S)-3-Hydroxy-pyrrolidin-1-yl)-2-methyl-pyridin-3-yl]-8-(5-isopropoxy-pyridin-3-yl)-3-methyl-1,3-dihydro-imidazo[4,5-c]quinolin-2-one] | 0.0953 |  | 0.0022 |
| COc1ncccc1-n1c(=O)n(C)c2cnc3ccc(-c4cnc5[nH]ccc5c4)cc3c21 [Example 1.2, 1-(2-Methoxy-pyridin-3-yl)-3-methyl-8-(1H-pyrrolo[2,3-b]pyridin-5-yl)-1,3-dihydro-imidazo[4,5-c]quinolin-2-one] | 0.00801 | 0.00261 |  |
| Cc1ncccc1-n1c(=O)n(C)c2cnc3ccc(-c4cnc(N(C)C)nc4)cc3c21 [Example 2.15, 8-(2-Dimethylamino-pyrimidin-5-yl)-3-methyl-1-(2-methyl-pyridin-3-yl)-1,3-dihydro-imidazo[4,5-c]quinolin-2-one] | 0.102 | 0.0682 |  |
| CNc1ncc(-c2ccc3ncc4c(c3c2)n(-c2ccc(N3CC(O)C3)nc2C)c(=O)n4C)cc1C(F)(F)F [Example 29.4, 1-[6-(3-Hydroxy-azetidin-1-yl)-2-methyl-pyridin-3-yl]-3-methyl-8-(6-methylamino-5-trifluoromethyl-pyridin-3-yl)-1,3-dihydro-imidazo[4,5-c]quinolin-2-one] | 0.0183 |  | 0.0017 |
| CCOc1ncc(-c2ccc3ncc4c(c3c2)n(-c2cccnc2C)c(=O)n4C)cn1 [Example 2.5, 8-(2-Ethoxy-pyrimidin-5-yl)-3-methyl-1-(2-methyl-pyridin-3-yl)-1,3-dihydro-imidazo[4,5-c]quinolin-2-one] | 0.204 | 0.237 |  |
| CCNc1cc(-c2ccc3ncc4c(c3c2)n(-c2ccc(N3CCC3)nc2C)c(=O)n4C)cnc1CO [Example 23.8, 1-(6-Azetidin-1-yl-2-methyl-pyridin-3-yl)-8-(5-ethylamino-6-hydroxymethyl-pyridin-3-yl)-3-methyl-1,3-dihydro-imidazo[4,5-c]quinolin-2-one] | 0.0102 |  | 0.006 |
| CNc1ncc(-c2ccc3ncc4c(c3c2)n(-c2ccc(N(C)CCO)nc2C)c(=O)n4C)cn1 [Example 26.2, 1-{6-[(2-Hydroxy-ethyl)-methyl-amino]-2-methyl-pyridin-3-yl}-3-methyl-8-(2-methylamino-pyrimidin-5-yl)-1,3-dihydro-imidazo[4,5-c]quinolin-2-one] | 0.0104 |  | < 0.000457 |
| CNc1ncc(-c2ccc3ncc4c(c3c2)n(-c2ccc(N3CC(F)(F)C3)nc2C)c(=O)n4C)cn1 [Example 24.1, 1-[6-(3,3-Difluoro-azetidin-1-yl)-2-methyl-pyridin-3-yl]-3-methyl-8-(2-methylamino-pyrimidin-5-yl)-1,3-dihydro-imidazo[4,5-c]quinolin-2-one] | 0.0426 |  | 0.002 |
| CCOc1cc(-c2ccc3ncc4c(c3c2)n(-c2ccc(F)nc2C)c(=O)n4C)cnc1COC [Example 7.5, 8-(5-Ethoxy-6-methoxymethyl-pyridin-3-yl)-1-(6-fluoro-2-methyl-pyridin-3-yl)-3-methyl-1,3-dihydro-imidazo[4,5-c]quinolin-2-one] | 0.182 |  | 0.021 |
| CCOc1cc(-c2ccc3ncc4c(c3c2)n(-c2cccnc2C)c(=O)n4C)cnc1COC [Example 2.28, 8-(5-Ethoxy-6-methoxymethyl-pyridin-3-yl)-3-methyl-1-(2-methyl-pyridin-3-yl)-1,3-dihydro-imidazo[4,5-c]quinolin-2-one] | 0.218 |  | 0.014 |
| Cc1ncccc1-n1c(=O)n(C)c2cnc3ccc(-c4ccc(CO)nc4)cc3c21 [Example 2.6, 8-(6-Hydroxymethyl-pyridin-3-yl)-3-methyl-1-(2-methyl-pyridin-3-yl)-1,3-dihydro-imidazo[4,5-c]quinolin-2-one] | 0.0747 | 0.0661 |  |
| CCNc1cc(-c2ccc3ncc4c(c3c2)n(-c2cccnc2C)c(=O)n4C)cnc1CO [Example 2.31, 8-(5-Ethylamino-6-hydroxymethyl-pyridin-3-yl)-3-methyl-1-(2-methyl-pyridin-3-yl)-1,3-dihydro-imidazo[4,5-c]quinolin-2-one] | 0.0314 |  | 0.021 |
| CNc1ncc(-c2ccc3ncc4c(c3c2)n(-c2ccc(N3CC(O)C3)nc2C)c(=O)n4C)cc1F [Example 29.3, 8-(5-Fluoro-6-methylamino-pyridin-3-yl)-1-[6-(3-hydroxy-azetidin-1-yl)-2-methyl-pyridin-3-yl]-3-methyl-1,3-dihydro-imidazo[4,5-c]quinolin-2-one] | 0.0653 |  | 0.0078 |
| COC1CCN(c2ccc(-n3c(=O)n(C)c4cnc5ccc(-c6cncc(C(C)(C)O)c6)cc5c43)c(C)n2)C1 (stereo not shown) [Example 28.1, 8-[5-(1-Hydroxy-1-methyl-ethyl)-pyridin-3-yl]-1-[6-(3-methoxy-pyrrolidin-1-yl)-2-methyl-pyridin-3-yl]-3-methyl-1,3-dihydro-imidazo[4,5-c]quinolin-2-one] | 0.0399 |  | 0.001 |
| CCNc1ncc(-c2ccc3ncc4c(c3c2)n(-c2ccc(N3CC[C@@H](O)C3)nc2C)c(=O)n4C)cc1C(F)(F)F [Example 34.2, 8-(6-Ethylamino-5-trifluoromethyl-pyridin-3-yl)-1-[6-((R)-3-hydroxy-pyrrolidin-1-yl)-2-methyl-pyridin-3-yl]-3-methyl-1,3-dihydro-imidazo[4,5-c]quinolin-2-one] | 0.0399 |  | 0.0019 |
